pEC50: −log10 of the molar value. Like-named read-outs stand apart in the source and are kept apart here.
What was measured:
[1] = tested on: Recombinant Respiratory Syncytial virus strain A2 containing the firefly luciferase reporter (RSV-Fluc); assay: microbe, parasite or virus in culture; type: cell-based; details: human respiratory syncytial virus, NHBE
SARS-CoV-2 = assay: microbe, parasite or virus in culture; type: cell-based; details: Severe acute respiratory syndrome coronavirus 2, read-out: SARS EC50
MT4 cytotoxicity (CC50) = details: human, MT4 cells, MT4 CC50, Table 4
[2] = 72 h, read-out: RSV-Fluc EC50 (NHBE), NHBE cells, three days, Table 2

Compound	pEC50 [1, 2]	pEC50 ([1]; read-out: RSV EC50, Table 2a)	pEC50 (SARS-CoV-2)	pEC50 ([1]; read-out: RSV EC50, Table 4)	CC50 (MT4 cytotoxicity (CC50))
CCCCCCCCCCCCCCCCCCOC[C@H](COP(=O)(O)OC[C@H]1O[C@@](C#N)(c2ccc3c(N)ncnn23)[C@H](O)[C@@H]1O)OCc1cc(C#N)ccc1F [Example 66, ((2R,3S,4R,5R)-5-(4-aminopyrrolo[2,1-f][1,2,4]triazin-7-yl)-5-cyano-3,4-dihydroxytetrahydrofuran-2-yl)methyl ((R)-2-((5-cyano-2-fluorobenzyl)oxy)-3-(octadecyloxy)propyl) hydrogen phosphate]	8.00	8.00	6.32	–	–
CCCCCCCCCCCCCCCCOC[C@H](COP(=O)(O)OC[C@H]1O[C@@](C#N)(c2ccc3c(N)ncnn23)[C@H](O)[C@@H]1O)OCc1cc(F)cc(C#N)c1 [Example 119, [(2R,3S,4R,5R)-5-(4-Aminopyrrolo[2,1-f][1,2,4]triazin-7-yl)-5-cyano-3,4-dihydroxy-tetrahydrofuran-2-yl]methyl [(2R)-2-[(3-cyano-5-fluoro-phenyl)methoxy]-3-hexadecoxy-propyl] hydrogen phosphate]	–	–	–	7.52	404 nM
CCCCCCCCCCCCCCCCCCOC[C@H](COP(=O)(O)OC[C@H]1O[C@@](C#N)(c2ccc3c(N)ncnn23)[C@H](O)[C@@H]1O)Oc1ncccc1OC [Example 91, ((2R,3S,4R,5R)-5-(4-aminopyrrolo[2,1-f][1,2,4]triazin-7-yl)-5-cyano-3,4-dihydroxytetrahydrofuran-2-yl)methyl ((R)-2-((3-methoxypyridin-2-yl)oxy)-3-(octadecyloxy)propyl) hydrogen phosphate]	–	–	–	7.34	454 nM
CCCCCCCCCCCCCCCCCCOC[C@H](COP(=O)(O)OC[C@H]1O[C@@](C#N)(c2ccc3c(N)ncnn23)[C@H](O)[C@@H]1O)OCc1c(F)cccc1C#N [Example 65, ((2R,3S,4R,5R)-5-(4-aminopyrrolo[2,1-f][1,2,4]triazin-7-yl)-5-cyano-3,4-dihydroxytetrahydrofuran-2-yl)methyl ((R)-2-((2-cyano-6-fluorobenzyl)oxy)-3-(octadecyloxy)propyl) hydrogen phosphate]	7.21	7.21	–	–	–
CCCCCCCCCCCCCCCCCCOC[C@H](COP(=O)(O)OC[C@H]1O[C@@](C#N)(c2ccc3c(N)ncnn23)[C@H](O)[C@@H]1O)Oc1cc(OC)ccn1 [Example 90, ((2R,3S,4R,5R)-5-(4-aminopyrrolo[2,1-f][1,2,4]triazin-7-yl)-5-cyano-3,4-dihydroxytetrahydrofuran-2-yl)methyl ((R)-2-((4-methoxypyridin-2-yl)oxy)-3-(octadecyloxy)propyl) hydrogen phosphate]	–	–	–	6.96	383 nM
CCCCCCCCCCCCCCCCCCOC[C@H](COP(=O)(O)OC[C@H]1O[C@@](C#N)(c2ccc3c(N)ncnn23)[C@H](O)[C@@H]1O)Oc1ccc(OC)cn1 [Example 89, ((2R,3S,4R,5R)-5-(4-aminopyrrolo[2,1-f][1,2,4]triazin-7-yl)-5-cyano-3,4-dihydroxytetrahydrofuran-2-yl)methyl ((R)-2-((5-methoxypyridin-2-yl)oxy)-3-(octadecyloxy)propyl) hydrogen phosphate]	–	–	–	7.55	962 nM
CCCCCCCCCCCCCCCCOC[C@H](COP(=O)(O)OC[C@H]1O[C@@](C#N)(c2ccc3c(N)ncnn23)[C@H](O)[C@@H]1O)OCc1ccc(F)c(C#N)c1 [Example 109, [(2R,3S,4R,5R)-5-(4-Aminopyrrolo[2,1-f][1,2,4]triazin-7-yl)-5-cyano-3,4-dihydroxy-tetrahydrofuran-2-yl]methyl [(2R)-2-[(3-cyano-4-fluoro-phenyl)methoxy]-3-hexadecoxy-propyl] hydrogen phosphate]	–	–	5.80	6.46	–
CCCCCCCCCCCCCCCCCCOC[C@H](COP(=O)(O)OC[C@H]1O[C@@](C#N)(c2ccc3c(N)ncnn23)[C@H](O)[C@@H]1O)OCc1ccccc1C#N [Example 50, ((2R,3S,4R,5R)-5-(4-aminopyrrolo[2,1-f][1,2,4]triazin-7-yl)-5-cyano-3,4-dihydroxytetrahydrofuran-2-yl)methyl ((R)-2-((2-cyanobenzyl)oxy)-3-(octadecyloxy)propyl) hydrogen phosphate]	7.05	7.05	6.07	–	–
CCCCCCCCCCCCCCCCCCCCOC[C@H](COP(=O)(O)OC[C@H]1O[C@@](C#N)(c2ccc3c(N)ncnn23)[C@H](O)[C@@H]1O)OCc1cc(F)cc(C#N)c1 [Example 125, ((2R,3S,4R,5R)-5-(4-aminopyrrolo[2,1-f][1,2,4]triazin-7-yl)-5-cyano-3,4-dihydroxytetrahydrofuran-2-yl)methyl ((R)-2-((3-cyano-5-fluorobenzyl)oxy)-3-(icosyloxy)propyl) hydrogen phosphate]	–	–	–	6.89	2080 nM
CCCCCCCCCCCCCCCCCCOC[C@H](COP(=O)(O)OC[C@H]1O[C@@](C#N)(c2ccc3c(N)ncnn23)[C@H](O)[C@@H]1O)OCc1cc(C#N)cc(C#N)c1 [Example 26, ((2R,3S,4R,5R)-5-(4-aminopyrrolo[2,1-f][1,2,4]triazin-7-yl)-5-cyano-3,4-dihydroxytetrahydrofuran-2-yl)methyl ((R)-2-((3,5-dicyanobenzyl)oxy)-3-(octadecyloxy)propyl) hydrogen phosphate]	7.72	7.72	6.19	–	–
CCCCCCCCCCCCCCCCCCOC[C@@H](COP(=O)(O)OC[C@H]1O[C@@](C#N)(c2ccc3c(N)ncnn23)[C@H](O)[C@@H]1O)Oc1ccccc1 [Example 38, ((2R,3S,4R,5R)-5-(4-aminopyrrolo[2,1-f][1,2,4]triazin-7-yl)-5-cyano-3,4-dihydroxytetrahydrofuran-2-yl)methyl ((S)-3-(octadecyloxy)-2-phenoxypropyl) hydrogen phosphate]	–	6.55	5.00	–	–
CCCCCCCCCCCCCCCCCCOC[C@H](COP(=O)(O)OC[C@H]1O[C@@](C#N)(c2ccc3c(N)ncnn23)[C@H](O)[C@@H]1O)Oc1cncc(C#N)c1 [Example 84, ((2R,3S,4R,5R)-5-(4-aminopyrrolo[2,1-f][1,2,4]triazin-7-yl)-5-cyano-3,4-dihydroxytetrahydrofuran-2-yl)methyl ((R)-2-((5-cyanopyridin-3-yl)oxy)-3-(octadecyloxy)propyl) hydrogen phosphate]	–	–	–	8.15	212 nM
CCCCCCCCCCCCCCCCCCOC[C@H](COP(=O)(O)OC[C@H]1O[C@@](C#N)(c2ccc3c(N)ncnn23)[C@H](O)[C@@H]1O)Oc1cc(C#N)ccn1 [Example 99, [(2R,3S,4R,5R)-5-(4-Aminopyrrolo[2,1-f][1,2,4]triazin-7-yl)-5-cyano-3,4-dihydroxy-tetrahydrofuran-2-yl]methyl [(2R)-2-[(4-cyano-2-pyridyl)oxy]-3-octadecoxy-propyl]hydrogen phosphate]	–	–	–	–	1780 nM
CCCCCCCCCCCCCCCCCCOC[C@H](COP(=O)(O)OC[C@H]1O[C@@](C#N)(c2ccc3c(N)ncnn23)[C@H](O)[C@@H]1O)OCc1cc(Cl)cc(C#N)c1 [Example 68, ((2R,3S,4R,5R)-5-(4-aminopyrrolo[2,1-f][1,2,4]triazin-7-yl)-5-cyano-3,4-dihydroxytetrahydrofuran-2-yl)methyl ((R)-2-((3-chloro-5-cyanobenzyl)oxy)-3-(octadecyloxy)propyl) hydrogen phosphate]	7.60	7.60	6.03	–	–
CCCCCCCCCCCCCCCCCCOC[C@H](COP(=O)(O)OC[C@H]1O[C@@](C#N)(c2ccc3c(N)ncnn23)[C@H](O)[C@@H]1O)Oc1ccccc1 [Example 87, ((2R,3S,4R,5R)-5-(4-aminopyrrolo[2,1-f][1,2,4]triazin-7-yl)-5-cyano-3,4-dihydroxytetrahydrofuran-2-yl)methyl ((R)-3-(octadecyloxy)-2-phenoxypropyl) hydrogen phosphate]	–	–	–	–	3100 nM
CCCCCCCCCCCCCCCCCCOC[C@H](COP(=O)(O)OC[C@H]1O[C@@](C#N)(c2ccc3c(N)ncnn23)[C@H](O)[C@@H]1O)OCc1ccccc1Cl [Example 64, ((2R,3S,4R,5R)-5-(4-aminopyrrolo[2,1-f][1,2,4]triazin-7-yl)-5-cyano-3,4-dihydroxytetrahydrofuran-2-yl)methyl ((R)-2-((2-chlorobenzyl)oxy)-3-(octadecyloxy)propyl) hydrogen phosphate]	7.38	7.38	6.13	–	–
CCCCCCCCCCCCCCCCCCOC[C@@H](CCc1cc(F)cc(C#N)c1)COP(=O)(O)OC[C@H]1O[C@@](C#N)(c2ccc3c(N)ncnn23)[C@H](O)[C@@H]1O [Example 86, ((2R,3S,4R,5R)-5-(4-aminopyrrolo[2,1-f][1,2,4]triazin-7-yl)-5-cyano-3,4-dihydroxytetrahydrofuran-2-yl)methyl ((R)-4-(3-cyano-5-fluorophenyl)-2-((octadecyloxy)methyl)butyl) hydrogen phosphate]	–	–	–	6.37	22000 nM
CCCCCCCCCCCCCCCCCCOC[C@H](COP(=O)(O)OC[C@H]1O[C@@](C#N)(c2ccc3c(N)ncnn23)[C@H](O)[C@@H]1O)OCc1ccc(F)cc1 [Example 110, [(2R,3S,4R,5R)-5-(4-Aminopyrrolo[2,1-f][1,2,4]triazin-7-yl)-5-cyano-3,4-dihydroxy-tetrahydrofuran-2-yl]methyl [(2R)-2-[(4-fluorophenyl)methoxy]-3-octadecoxy-propyl] hydrogen phosphate]	–	–	5.92	6.40	–
CCCCCCCCCCCCCCCCCCOC[C@H](COP(=O)(O)OC[C@H]1O[C@@](C#N)(c2ccc3c(N)ncnn23)[C@H](O)[C@@H]1O)OCc1cccc(OC)c1 [Example 63, ((2R,3S,4R,5R)-5-(4-aminopyrrolo[2,1-f][1,2,4]triazin-7-yl)-5-cyano-3,4-dihydroxytetrahydrofuran-2-yl)methyl ((R)-2-((3-methoxybenzyl)oxy)-3-(octadecyloxy)propyl) hydrogen phosphate]	7.48	8.52	5.98	–	–

Source: patent US12030904B2 (priority 2020, dated 2024)
